Measured values: PubChem BioAssay (NCI)
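Cells were grown in 96-well plates and exposed to each compound for 48 hours at five concentrations; endpoints were interpolated linearly between bracketing concentrations, or set to the highest concentration if not reached. The concentration for 50% growth inhibition is given as GI50. TGI: total growth inhibition.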

Experiments:
Test in all cases: DTP human tumour cell line panel, 48 h
SF-268 CNS = tested on: SF-268 CNS
K-562 leukemia = tested on: K-562 leukemia
CCRF-CEM leukemia = tested on: CCRF-CEM leukemia
NCI-H226 lung = tested on: NCI-H226 lung
A498 renal = tested on: A498 renal
HT29 colon = tested on: HT29 colon
HOP-62 NSCLC = tested on: HOP-62 NSCLC
IGROV1 ovarian = tested on: IGROV1 ovarian
OVCAR-4 ovarian = tested on: OVCAR-4 ovarian
COLO 205 colon = tested on: COLO 205 colon

SMILES: CCC(C)C(=O)c1c(O)c(C/C=C(\C)CCC=C(C)C)c(O)c2c(C(O)CC)cc(=O)oc12 (centres undefined)
- TGI (SF-268 CNS): 10.8 µM
- TGI (K-562 leukemia): 3.31 µM
- TGI (CCRF-CEM leukemia): 3.44 µM
- TGI (NCI-H226 lung): 9.11 µM
- TGI (A498 renal): 6.15 µM
- TGI (HT29 colon): 3.62 µM
- TGI (HOP-62 NSCLC): 4.08 µM
- TGI (IGROV1 ovarian): 13.6 µM
- TGI (OVCAR-4 ovarian): 10.5 µM
- TGI (COLO 205 colon): 7.27 µM

SMILES: CC[n+]1c(/C=C/c2ccc(N(CCCl)CCCl)cc2)ccc2cc(NC(=O)/C=C/c3ccccc3)ccc21
- TGI (SF-268 CNS): 1.96 µM
- TGI (K-562 leukemia): 0.235 µM
- TGI (CCRF-CEM leukemia): 0.831 µM
- TGI (NCI-H226 lung): 2.89 µM
- TGI (A498 renal): 27.4 µM
- TGI (HT29 colon): 1.36 µM
- TGI (HOP-62 NSCLC): 1.74 µM
- TGI (IGROV1 ovarian): 1.86 µM
- TGI (COLO 205 colon): 0.222 µM

SMILES: COc1cc(C2c3cc4c(cc3[C@@H](Nc3cccc(C(C)=O)c3)C3COC(=O)[C@H]23)OCO4)cc(OC)c1O (some centres undefined)
- TGI (SF-268 CNS): 13.1 µM
- TGI (K-562 leukemia): 6.1 µM
- TGI (CCRF-CEM leukemia): 0.231 µM
- TGI (NCI-H226 lung): 1.99 µM
- TGI (A498 renal): 1.6 µM
- TGI (HT29 colon): 6.53 µM
- TGI (HOP-62 NSCLC): 0.538 µM
- TGI (IGROV1 ovarian): 24.6 µM
- TGI (OVCAR-4 ovarian): > 100 µM
- TGI (COLO 205 colon): 5.05 µM

SMILES: COc1ccc(CC(C)N)cc1 (centres undefined)
- TGI (SF-268 CNS): > 100 µM
- TGI (K-562 leukemia): > 100 µM
- TGI (CCRF-CEM leukemia): > 100 µM
- TGI (NCI-H226 lung): > 100 µM
- TGI (A498 renal): > 100 µM
- TGI (HT29 colon): > 100 µM
- TGI (HOP-62 NSCLC): > 100 µM
- TGI (IGROV1 ovarian): > 100 µM
- TGI (OVCAR-4 ovarian): > 100 µM
- TGI (COLO 205 colon): > 100 µM

SMILES: CCO/N=[N+](\[O-])N(CC)CC
- TGI (SF-268 CNS): > 100 µM
- TGI (K-562 leukemia): > 100 µM
- TGI (CCRF-CEM leukemia): > 100 µM
- TGI (NCI-H226 lung): > 100 µM
- TGI (A498 renal): > 100 µM
- TGI (HT29 colon): > 100 µM
- TGI (HOP-62 NSCLC): > 100 µM
- TGI (IGROV1 ovarian): > 100 µM

SMILES: CC1(C)N=C(N)N=C(N)N1c1cccc(OCCOc2ccc([N+](=O)[O-])cc2)c1
- TGI (SF-268 CNS): > 100 µM
- TGI (K-562 leukemia): > 100 µM
- TGI (CCRF-CEM leukemia): > 100 µM
- TGI (A498 renal): > 100 µM
- TGI (HT29 colon): > 100 µM
- TGI (HOP-62 NSCLC): > 100 µM
- TGI (IGROV1 ovarian): > 100 µM
- TGI (OVCAR-4 ovarian): > 100 µM
- TGI (COLO 205 colon): > 100 µM

SMILES: CC(C)C[P+](c1ccccc1)(c1ccccc1)c1ccccc1
- TGI (SF-268 CNS): > 100 µM
- TGI (K-562 leukemia): > 100 µM
- TGI (CCRF-CEM leukemia): 11.1 µM
- TGI (NCI-H226 lung): > 100 µM
- TGI (A498 renal): > 100 µM
- TGI (HT29 colon): > 100 µM
- TGI (HOP-62 NSCLC): > 100 µM
- TGI (IGROV1 ovarian): > 100 µM
- TGI (OVCAR-4 ovarian): > 100 µM
- TGI (COLO 205 colon): 15.7 µM

SMILES: Cc1nc2ccccc2c(=O)[nH]1
- TGI (SF-268 CNS): > 100 µM
- TGI (K-562 leukemia): > 100 µM
- TGI (CCRF-CEM leukemia): > 100 µM
- TGI (NCI-H226 lung): > 100 µM
- TGI (A498 renal): > 100 µM
- TGI (HT29 colon): > 100 µM
- TGI (HOP-62 NSCLC): > 100 µM
- TGI (IGROV1 ovarian): > 100 µM
- TGI (OVCAR-4 ovarian): > 100 µM
- TGI (COLO 205 colon): > 100 µM

SMILES: ClCc1c(Cl)c(Cl)c(Cl)c(CCl)c1Cl
- GI50 (K-562 leukemia): 1.8 µM
- TGI (K-562 leukemia): 4.37 µM
- GI50 (CCRF-CEM leukemia): 0.841 µM
- TGI (CCRF-CEM leukemia): 3.28 µM
- GI50 (NCI-H226 lung): 2.53 µM
- TGI (NCI-H226 lung): 7.3 µM
- GI50 (A498 renal): 2.45 µM
- TGI (A498 renal): 12.5 µM
- GI50 (HT29 colon): 1.79 µM
- TGI (HT29 colon): 3.3 µM
- GI50 (HOP-62 NSCLC): 2.15 µM
- TGI (HOP-62 NSCLC): 4.25 µM
- GI50 (IGROV1 ovarian): 1.97 µM
- TGI (IGROV1 ovarian): 4.19 µM
- GI50 (OVCAR-4 ovarian): 1.62 µM
- TGI (OVCAR-4 ovarian): 2.98 µM
- GI50 (COLO 205 colon): 1.83 µM
- TGI (COLO 205 colon): 3.33 µM

SMILES: CCOC(=O)/C=C(\C)c1ccc(OC)cc1
- TGI (SF-268 CNS): > 100 µM
- TGI (NCI-H226 lung): > 100 µM
- TGI (A498 renal): > 100 µM
- TGI (HT29 colon): > 100 µM
- TGI (IGROV1 ovarian): > 100 µM
- TGI (OVCAR-4 ovarian): > 100 µM
- TGI (COLO 205 colon): > 100 µM

SMILES: COc1cc[n+](C)cc1
- TGI (SF-268 CNS): > 100 µM
- TGI (K-562 leukemia): > 100 µM
- TGI (CCRF-CEM leukemia): > 100 µM
- TGI (NCI-H226 lung): > 100 µM
- TGI (HT29 colon): > 100 µM
- TGI (HOP-62 NSCLC): > 100 µM
- TGI (IGROV1 ovarian): > 100 µM
- TGI (OVCAR-4 ovarian): > 100 µM
- TGI (COLO 205 colon): > 100 µM

SMILES: NCc1ccc(C(=O)O)cc1
- TGI (SF-268 CNS): > 100 µM
- TGI (K-562 leukemia): > 100 µM
- TGI (NCI-H226 lung): > 100 µM
- TGI (A498 renal): > 100 µM
- TGI (HT29 colon): > 100 µM
- TGI (HOP-62 NSCLC): > 100 µM
- TGI (IGROV1 ovarian): > 100 µM
- TGI (OVCAR-4 ovarian): > 100 µM

SMILES: C#CC[C@@H]1C[C@]2(C)[C@H]3CC=C4[C@H]5CC(C)(C)CC[C@]5(C(=O)NCCCCN)CC[C@@]4(C)[C@]3(C)CC[C@H]2C(C)(C)[C@H]1OC(C)=O
- GI50 (SF-268 CNS): 1.73 µM
- TGI (SF-268 CNS): 3.62 µM
- GI50 (K-562 leukemia): 1.91 µM
- TGI (K-562 leukemia): 6.16 µM
- GI50 (CCRF-CEM leukemia): 1.93 µM
- TGI (CCRF-CEM leukemia): 4.55 µM
- GI50 (A498 renal): 1.8 µM
- TGI (A498 renal): 3.21 µM
- GI50 (IGROV1 ovarian): 1.62 µM
- TGI (IGROV1 ovarian): 3.02 µM
- GI50 (OVCAR-4 ovarian): 1.71 µM
- TGI (OVCAR-4 ovarian): 3.23 µM
- GI50 (COLO 205 colon): 1.72 µM
- TGI (COLO 205 colon): 3.32 µM

SMILES: Brc1ccccc1-c1ncc(-c2ccccc2)o1
- TGI (SF-268 CNS): > 100 µM
- TGI (K-562 leukemia): > 100 µM
- TGI (CCRF-CEM leukemia): 54.7 µM
- TGI (A498 renal): 60.5 µM
- TGI (HT29 colon): > 100 µM
- TGI (HOP-62 NSCLC): 96.8 µM
- TGI (IGROV1 ovarian): 78.7 µM
- TGI (OVCAR-4 ovarian): > 100 µM
- TGI (COLO 205 colon): 39.5 µM

SMILES: O=[N+]([O-])c1cn[n+]([O-])c2ccccc12
- TGI (SF-268 CNS): 17.9 µM
- TGI (NCI-H226 lung): 27.3 µM
- TGI (A498 renal): 40.1 µM
- TGI (HT29 colon): 35.2 µM
- TGI (HOP-62 NSCLC): 26.2 µM
- TGI (COLO 205 colon): 26.5 µM

SMILES: CN(C)c1ccc(N=Nc2ccccn2)cc1
- TGI (SF-268 CNS): > 100 µM
- TGI (K-562 leukemia): > 100 µM
- TGI (CCRF-CEM leukemia): 91.2 µM
- TGI (NCI-H226 lung): > 100 µM
- TGI (A498 renal): 94.7 µM
- TGI (HT29 colon): > 100 µM
- TGI (HOP-62 NSCLC): > 100 µM
- TGI (IGROV1 ovarian): > 100 µM
- TGI (OVCAR-4 ovarian): > 100 µM
- TGI (COLO 205 colon): 21.8 µM

SMILES: CC(C)(Br)C1(O)CCCN1C(=O)c1ccccc1 (centres undefined)
- TGI (SF-268 CNS): > 100 µM
- TGI (K-562 leukemia): > 100 µM
- TGI (CCRF-CEM leukemia): > 100 µM
- TGI (A498 renal): > 100 µM
- TGI (HT29 colon): > 100 µM
- TGI (IGROV1 ovarian): > 100 µM
- TGI (COLO 205 colon): > 100 µM

SMILES: NCc1ccccc1C1CSCSC1
- TGI (SF-268 CNS): > 100 µM
- TGI (K-562 leukemia): > 100 µM
- TGI (CCRF-CEM leukemia): > 100 µM
- TGI (NCI-H226 lung): > 100 µM
- TGI (HT29 colon): > 100 µM
- TGI (OVCAR-4 ovarian): > 100 µM

SMILES: COc1ccc(NC(=O)/C(CC2=Nc3ccc([N+](=O)[O-])cc3NC2O)=N\NC(=O)C[N+](C)(C)C)c(OC)c1 (centres undefined)
- TGI (SF-268 CNS): > 100 µM
- TGI (CCRF-CEM leukemia): > 100 µM
- TGI (NCI-H226 lung): > 100 µM
- TGI (HT29 colon): > 100 µM
- TGI (HOP-62 NSCLC): > 100 µM
- TGI (IGROV1 ovarian): > 100 µM
- TGI (OVCAR-4 ovarian): > 100 µM
- TGI (COLO 205 colon): > 100 µM

SMILES: Cn1c(-c2ccc(/C=N\N3CCN(/N=C/c4ccc(-c5c[n+]6ccccc6n5C)cc4)CC3)cc2)c[n+]2ccccc12
- TGI (SF-268 CNS): > 100 µM
- TGI (CCRF-CEM leukemia): > 100 µM
- TGI (NCI-H226 lung): > 100 µM
- TGI (A498 renal): 42.8 µM
- TGI (HT29 colon): > 100 µM
- TGI (IGROV1 ovarian): > 100 µM
- TGI (OVCAR-4 ovarian): > 100 µM
- TGI (COLO 205 colon): > 100 µM

SMILES: C=C1C(=O)OC2C1CC(O)/C(C)=C\CCC1(C)OC21 (centres undefined)
- TGI (SF-268 CNS): 86.6 µM
- TGI (CCRF-CEM leukemia): > 100 µM
- TGI (A498 renal): > 100 µM
- TGI (HT29 colon): > 100 µM
- TGI (HOP-62 NSCLC): 49.3 µM
- TGI (IGROV1 ovarian): > 100 µM
- TGI (OVCAR-4 ovarian): > 100 µM
- TGI (COLO 205 colon): 89.9 µM
